Results on 25 compounds are retold here after patent US6020366A, “Butyric acid matrix metalloproteinase inhibitors” (priority 1998, dated 2000).

The term IC50 denotes the concentration at which inhibition is half-maximal.

Where two headings read alike, the source gives them in different places.

Common to all, as to type: biochemical
In one assay the target is T1, MMP-2 (Gelatinase A) (Homo sapiens, UniProt P08253).
T1 sequence (P08253 110-660): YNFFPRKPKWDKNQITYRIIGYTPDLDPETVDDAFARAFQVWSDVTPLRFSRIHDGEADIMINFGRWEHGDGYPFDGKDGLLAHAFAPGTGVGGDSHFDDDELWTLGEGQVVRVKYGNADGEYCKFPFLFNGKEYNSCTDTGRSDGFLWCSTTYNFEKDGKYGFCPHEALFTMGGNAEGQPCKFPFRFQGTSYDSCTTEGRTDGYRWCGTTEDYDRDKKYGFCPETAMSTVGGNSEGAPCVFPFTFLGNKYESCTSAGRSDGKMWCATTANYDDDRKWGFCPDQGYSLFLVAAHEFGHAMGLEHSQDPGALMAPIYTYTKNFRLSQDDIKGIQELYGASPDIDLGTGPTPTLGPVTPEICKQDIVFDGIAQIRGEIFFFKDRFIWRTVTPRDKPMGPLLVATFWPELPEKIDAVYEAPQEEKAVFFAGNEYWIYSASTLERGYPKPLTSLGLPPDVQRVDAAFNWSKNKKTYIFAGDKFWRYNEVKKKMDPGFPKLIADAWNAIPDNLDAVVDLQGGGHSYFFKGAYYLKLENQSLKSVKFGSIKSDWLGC
Description: inhibition of MMP-2 hydrolysis of thiopeptolide substrate.

A further assay deals with MMP-3 (stromelysin) (Homo sapiens, UniProt P08254). Description: inhibition of MMP-3 hydrolysis of thiopeptolide substrate. The source says: The assays measure the amount by which a test compound reduces the hydrolysis of a thiopeptolide substrate caused by a matrix metalloproteinase enzyme. Such assays are described in detail by Ye, et al., in Biochemistry, 1992;31(45):11231-11235).
Sequence of MMP-3 (stromelysin) (P08254 100-477): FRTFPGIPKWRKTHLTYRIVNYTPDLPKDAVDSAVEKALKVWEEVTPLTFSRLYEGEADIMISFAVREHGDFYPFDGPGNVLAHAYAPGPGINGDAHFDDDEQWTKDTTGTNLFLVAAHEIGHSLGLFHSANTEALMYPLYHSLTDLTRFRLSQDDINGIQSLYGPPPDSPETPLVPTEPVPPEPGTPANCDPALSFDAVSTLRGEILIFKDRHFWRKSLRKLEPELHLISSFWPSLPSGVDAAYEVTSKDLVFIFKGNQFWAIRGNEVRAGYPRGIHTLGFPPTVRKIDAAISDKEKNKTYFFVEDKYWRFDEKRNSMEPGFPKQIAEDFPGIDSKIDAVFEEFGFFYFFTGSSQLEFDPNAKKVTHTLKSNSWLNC
Thiopeptolide substrates show virtually no decomposition or hydrolysis in the absence of a matrix metalloproteinase enzyme. A typical thiopeptolide substrate commonly utilized for assays is Ac-Pro-Leu-Gly-thioester-Len-Len-Gly-O Et. […] Assays are carried out with and without matrix metalloproteinase inhibitor compounds, and the amount of hydrolysis is compared for a determination of inhibitory activity of the test compounds.
In the table, MMP-1 refers to interstitial collagenase; MMP-2 refers to Gelatinase A; MMP-3 refers to stromelysin; MMP-7 refers to matrilysin; and MMP-13 refers to Collagenase 3.

For a further assay, the target named is MMP-13 (Collagenase 3) (Homo sapiens, UniProt P45452). Description: inhibition of MMP-13 hydrolysis of thiopeptolide substrate. The text has this:
The invention compounds have been evaluated in standard in vitro assays and shown to be potent inhibitors of several matrix metalloproteinase enzymes.

Where [1] appears, read: thiopeptolide substrate, pH 6.0, 22° C., read-out: (IC50) MMP-2.
Setting [2] is: thiopeptolide substrate, pH 6.0, 22° C., read-out: (IC50) MMP-3.
The mark [3] stands for this setting: thiopeptolide substrate, pH 6.0, 22° C., read-out: (IC50) MMP-13.

In the case of `CCCC(C)(C)C(=O)NC(CC(=O)c1ccc2oc3ccccc3c2c1)C(=O)O` (stereo not drawn) [Example 23, 4-Dibenzofuran-2-yl-2-(2,2-dimethyl-pentanoylamino)-4-oxo-butyric acid], the half-maximal inhibitory concentration (IC50) at MMP-2 (Gelatinase A) (setting [1]) is 170 nM; on MMP-3 (stromelysin) (setting [2]), 760 nM; on MMP-13 (Collagenase 3) (setting [3]), 5600 nM.
As for `CCCCCCC(=O)NC(CC(=O)c1ccc2oc3ccccc3c2c1)C(=O)O` (stereo not drawn) [Example 33, 4-Dibenzofuran-2-yl-2-heptanoylamino-4-oxo-butyric acid], the values for the IC50 on MMP-2 (Gelatinase A) (setting [1]), on MMP-3 (stromelysin) (setting [2]) and on MMP-13 (Collagenase 3) (setting [3]) were 60 nM, 640 nM and 4700 nM, respectively.
As to `O=C(COCc1ccccc1)NC(CC(=O)c1ccc2oc3ccccc3c2c1)C(=O)O` (stereo not drawn) [Example 32, 2-(2-Benzyloxy-acetylamino)-4-dibenzofuran-2-yl-4-oxo-butyric acid], the IC50 at MMP-2 (Gelatinase A) (setting [1]) stood at 41 nM; at MMP-3 (stromelysin) (setting [2]), 330 nM; at MMP-13 (Collagenase 3) (setting [3]), 3500 nM.
The like results for `O=C(CC(NC(=O)c1ccncc1)C(=O)O)c1ccc2oc3ccccc3c2c1` (stereo not drawn) [Example 24, 4-Dibenzofuran-2-yl-4-oxo-2-[(pyridine-4-carbonyl)-amino]-butyric acid] were, in that order, 3200 nM, 13000 nM and 41000 nM.
Take `CCCCc1ccc(C(=O)NC(CC(=O)c2ccc3oc4ccccc4c3c2)C(=O)O)cc1` (stereo not drawn) [Example 34, 2-(4-Butyl-benzoylamino)-4-dibenzofuran-2-yl-4-oxo-butyric acid]: the figures for the half-maximal inhibitory concentration (IC50) at MMP-2 (Gelatinase A) (setting [1]), on MMP-3 (stromelysin) (setting [2]) and at MMP-13 (Collagenase 3) (setting [3]) were 870 nM, 5400 nM and 49000 nM, respectively.
As for `O=C(CCc1ccccc1)N[C@@H](CC(=O)c1ccc2oc3ccccc3c2c1)C(=O)O` [Example 8, (S)-4-Dibenzofuran-2-yl-4-oxo-2-(3-phenylpropionylamino)-butyric acid], the IC50 on MMP-2 (Gelatinase A) (setting [1]) amounted to 67 nM; on MMP-3 (stromelysin) (setting [2]), 290 nM; on MMP-13 (Collagenase 3) (setting [3]) it was 1300 nM.
On to `O=C(CC(NC(=O)c1ccccn1)C(=O)O)c1ccc2oc3ccccc3c2c1` (stereo not drawn) [Example 45, 4-Dibenzofuran-2-yl-4-oxo-2-[(pyridine-2-carbonyl)-amino]-butyric acid], for which the IC50 on MMP-2 (Gelatinase A) (setting [1]) is 110 nM; on MMP-3 (stromelysin) (setting [2]) it was 1000 nM; at MMP-13 (Collagenase 3) (setting [3]) it was 15000 nM.
In the case of `O=C(CC(NC(=O)C1CCCCC1)C(=O)O)c1ccc2oc3ccccc3c2c1` (stereo not drawn) [Example 50, 2-(Cyclohexanecarbonyl-amino)-4-dibenzofuran-2-yl-4-oxo-butyric acid], the values for the IC50 at MMP-2 (Gelatinase A) (setting [1]), on MMP-3 (stromelysin) (setting [2]) and on MMP-13 (Collagenase 3) (setting [3]) were 150 nM, 700 nM and 9100 nM, respectively.
The like results for `O=C(CC(NC(=O)c1cccs1)C(=O)O)c1ccc2oc3ccccc3c2c1` (stereo not drawn) [Example 51, 4-Dibenzofuran-2-yl-4-oxo-2-[(thiophene-2-carbonyl)-amino]-butyric acid] were, in that order, 160 nM, 1300 nM and 16000 nM.
For the compound `O=C(Cc1cccs1)NC(CC(=O)c1ccc2oc3ccccc3c2c1)C(=O)O` (stereo not drawn) [Example 52, 4-Dibenzofuran-2-yl-4-oxo-2-(2-thiophen-2-yl-acetylamino)-butyric acid], the IC50 was 2500 nM at MMP-2 (Gelatinase A) (setting [1]), 7700 nM at MMP-3 (stromelysin) (setting [2]) and 48000 nM on MMP-13 (Collagenase 3) (setting [3]).
For the compound `O=C(CC(NC(=O)C(F)(F)C(F)(F)C(F)(F)C(F)(F)C(F)(F)C(F)(F)C(F)(F)F)C(=O)O)c1ccc2oc3ccccc3c2c1` (stereo not drawn) [Example 27, 4-Dibenzofuran-2-yl-4-oxo-2-(2,2,3,3,4,4,5,5,6,6,7,7,8,8,8-pentadecafluoro-octanoylamino)-butyric acid], the IC50 against MMP-2 (Gelatinase A) is 4600 nM; against MMP-3 (stromelysin), 18000 nM; at MMP-13 (Collagenase 3), 77000 nM.
With `O=C(CCCc1ccc(Br)cc1)NC(CC(=O)c1ccc2oc3ccccc3c2c1)C(=O)O` (stereo not drawn) [Example 31, 2-[4-(4-Bromo-phenyl)-butyrylamino]-4-dibenzofuran-2-yl-4-oxo-butyric acid], the results for the half-maximal inhibitory concentration (IC50) on MMP-2 (Gelatinase A) (setting [1]), at MMP-3 (stromelysin) (setting [2]) and on MMP-13 (Collagenase 3) (setting [3]) were 600 nM, 5300 nM and 25000 nM, respectively.
The corresponding values for `COc1ccc(C(=O)NC(CC(=O)c2ccc3oc4ccccc4c3c2)C(=O)O)cc1` (stereo not drawn) [Example 46, 4-Dibenzofuran-2-yl-2-(4-methoxy-benzoylamino)-4-oxo-butyric acid] are 140 nM, 1000 nM and 11000 nM.
The corresponding values for `O=C(CC(NC(=O)C12CC3CC(CC(C3)C1)C2)C(=O)O)c1ccc2oc3ccccc3c2c1` (stereo not drawn) [Example 26, 2-[(Adamantane-1-carbonyl)-amino]-4-dibenzofuran-2-yl-4-oxo-butyric acid] are 2100 nM, 9200 nM and 40000 nM.
The corresponding values for `O=C(O)[C@H](CC(=NO)c1ccc2oc3ccccc3c2c1)NC(=O)C(F)(F)F` [Example 16, (S)-4-Dibenzofuran-2-yl-4-hydroxyimino-2-(2,2,2-trifluoroacetylamino)-butyric acid] are 720 nM, 6600 nM and 2400 nM.
Regarding `COc1ccc(C(=O)NC(CC(=O)c2ccc3oc4ccccc4c3c2)C(=O)O)cc1OC` (stereo not drawn) [Example 47, 4-Dibenzofuran-2-yl-2-(3,4-dimethoxy-benzoylamino)-4-oxo-butyric acid], the figures for the concentration for half-maximal inhibition (IC50) at MMP-2 (Gelatinase A) (setting [1]), on MMP-3 (stromelysin) (setting [2]) and on MMP-13 (Collagenase 3) (setting [3]) were 130 nM, 870 nM and 8800 nM, respectively.
`CCCCOc1ccc(C(=O)NC(CC(=O)c2ccc3oc4ccccc4c3c2)C(=O)O)cc1` (stereo not drawn) [Example 37, 2-(4-Butoxy-benzoylamino)-4-dibenzofuran-2-yl-4-oxo-butyric acid]: the IC50 was determined as 800 nM on MMP-2 (Gelatinase A) (setting [1]), 5000 nM on MMP-3 (stromelysin) (setting [2]) and 58000 nM at MMP-13 (Collagenase 3) (setting [3]).
The like results for `O=C(CC(NC(=O)c1cnc2ccccc2n1)C(=O)O)c1ccc2oc3ccccc3c2c1` (stereo not drawn) [Example 44, 4-Dibenzofuran-2-yl-4-oxo-2-[(quinoxaline-2-carbonyl)-amino]-butyric acid] were, in that order, 310 nM, 3500 nM and 27000 nM.
With `CCC(C(=O)NC(CC(=O)c1ccc2oc3ccccc3c2c1)C(=O)O)c1ccccc1` (stereo not drawn) [Example 54, 4-Dibenzofuran-2-yl-4-oxo-2-(2-phenylbutyrylamino)-butyric acid], the IC50 at MMP-2 (Gelatinase A) (setting [1]) was found to be 60 nM; on MMP-3 (stromelysin) (setting [2]), 250 nM; on MMP-13 (Collagenase 3) (setting [3]) it was 1500 nM.
Turning to `O=C(CC(NC(=O)c1ccc(Cl)c(Cl)c1)C(=O)O)c1ccc2oc3ccccc3c2c1` (stereo not drawn) [Example 20], the IC50 was found to be 1300 nM at MMP-2 (Gelatinase A) (setting [1]), 7000 nM on MMP-3 (stromelysin) (setting [2]) and 38000 nM on MMP-13 (Collagenase 3) (setting [3]).
For the compound `Cc1nn(-c2ccccc2)nc1C(=O)NC(CC(=O)c1ccc2oc3ccccc3c2c1)C(=O)O` (stereo not drawn) [Example 55, 4-Dibenzofuran-2-yl-2-[(5-methyl-2-phenyl-2H-[1,2,3]triazole-4-carbonyl)-amino]-4-oxo-butyric acid], the half-inhibitory concentration (IC50) on MMP-2 (Gelatinase A) (setting [1]) came to 1800 nM; at MMP-3 (stromelysin) (setting [2]), 14000 nM; at MMP-13 (Collagenase 3) (setting [3]), 70000 nM.
In the case of `CCCCCCCC(=O)N[C@@H](CC(=O)c1ccc2oc3ccccc3c2c1)C(=O)O` [Example 11, (S)-4-Dibenzofuran-2-yl-4-oxo-2-(octanoylamino)-butyric acid], the figures for the IC50 on MMP-2 (Gelatinase A) (setting [1]), on MMP-3 (stromelysin) (setting [2]) and on MMP-13 (Collagenase 3) (setting [3]) were 360 nM, 2700 nM and 6800 nM, respectively.
Take `O=C(CC(NC(=O)C(c1ccccc1)c1ccccc1)C(=O)O)c1ccc2oc3ccccc3c2c1` (stereo not drawn) [Example 18, 4-Dibenzofuran-2-yl-2-diphenylacetylamino-4-oxo-butyric acid]: the IC50 worked out at 100 nM at MMP-2 (Gelatinase A) (setting [1]), 360 nM at MMP-3 (stromelysin) (setting [2]) and 1100 nM on MMP-13 (Collagenase 3) (setting [3]).
The corresponding values for `O=C(C=Cc1ccccc1)NC(CC(=O)c1ccc2oc3ccccc3c2c1)C(=O)O` (stereo not drawn) [Example 25, 4-Dibenzofuran-2-yl-4-oxo-2-(3-phenyl-acryloylamino)-butyric acid] are 110 nM, 800 nM and 8400 nM.
The corresponding values for `O=C(CC(NC(=O)c1ccco1)C(=O)O)c1ccc2oc3ccccc3c2c1` (stereo not drawn) [Example 41, 4-Dibenzofuran-2-yl-2-[(furan-2-carbonyl)-amino]-4-oxo-butyric acid] are 140 nM, 1500 nM and 12000 nM.
